Laboratory results published in patent EP0126849A1, “Pharmacologically active N-amino hydantoin derivatives, their synthesis and intermediates” (THE WELLCOME FOUNDATION LIMITED, priority 1983, dated 1984).
Converted amounts (≈) assume the structure as drawn.

How the values were obtained:
[1] = system: systemic arterial blood pressure (BP); test: Concurrent change in systemic arterial blood pressure in anaesthetized rabbits; type: in vivo; conditions: for Δ BP: anaesthetized rabbit, i.v. infusion, at the ED50 dose; for blood pressure depressant activity: at the ED50 doses, rabbit, stated in words
Method: Male rabbits (2-2.5 kg body weight) were anaesthetized with sodium pentobarbitone (30 mg/kg, i.v. followed by maintenance doses of 3mg/kg) and systemic arterial blood pressure (BP) was recorded from a cannula filled with heparinized saline (5 units/ml) in a carotid artery; no heparin was administered to the animal. Hydantoins were administered via a cannula in a femoral vein. Blood samples (1.5 ml) were slowly collected into a plastic syringe containing tri-sodium citrate (3.18%, 0.15 ml) from a cannula inserted into a femoral artery, shaken gently and transferred to an Eppendorf plastic tube and spun in a modified Eppendorf centrifuge for 2 sec (Model 5412, maximum centrifugal force 10,000 x g). The PRP was collected and a 0.35 ml aliquot was transferred to the aggregometer and incubated at 37°C for 1 minute prior to addition of sufficient ADP (20 µM) to produce near-maximal aggregation. The time-interval between removal of blood samples and the transference of the PRP to the aggregometer was less than 1.5 min. […] After three control blood samples had been prepared and the control aggregation of the platelets measured, the hydantoin was infused intravenously for 15 min from a Braun slow-infusion apparatus. Blood samples were collected 10 min after the start of the infusion. Two further 10 min. samples post-infusion were collected prior to commencing further infusions. The following results list values of ED50 and change in blood pressure. For comparison, also given are the results obtained upon administration of PGIZ and Compound X.

[2] = system: platelet aggregation; test: Inhibition of platelet aggregation in human platelet-rich plasma (Born-type aggregometer, ADP or other aggregating agent); type: cell-based; conditions: for IC50: Homo sapiens, Platelet, 1 min, 1 min incubation at 37°C before aggregating agent, read-out: IC50; for IC50 / Potency relative to PGI2: human PRP; for Potency relative to PGI2: 1 min incubation, PGI2 = 1; for Increase on Incubation (min) 5: increase in potency after 5 min incubation in PRP; for Increase on Incubation (min) 10: increase in potency after 10 min incubation in PRP
Method: Human blood was freshly collected into siliconized (Siloclad; Clay Adams) plastic (Sterilin Ltd.) vessels containing trisodium citrate (3.15%; 0.1 volume with 0.9 volume blood) and centrifuged (200 g for 15 min) at room temperature. The platelet-rich plasma (PRP) was withdrawn into plastic containers and kept at room temperature. Inhibition of […] prior to addition of sufficient adenosine diphosphate (ADP) or other aggregating agent to just cause a non-reversing control aggregation. Dose-inhibition curves were constructed for each compound and the ID50 (dose causing 50% inhibition) was calculated as the dose required to reduce the aggregation to 50% of its control amplitude. […] For comparison, also given are the results upon administration of 5-(6-carboxyhexyl)-1-(3-cyclohexyl-3-hydroxypropyl)hydantoin (Compound X) which is disclosed in UK Specification 1,595,694. -
In this and subsequent biological examples, where a compound number refers to a single diastereoisomer, a mixture of diastereoisomers is indicated by two compound numbers separated by /.

[3] = system: mean systemic arterial blood pressure (BP); test: Cardiovascular actions in rats: fall in blood pressure and duration of the hypotensive effect; type: in vivo, male Wistar rats; conditions: for Fall in BP Relative Potency PGE1 / Fall in BP Relative Potency PGI2: anaesthetized rat, i.v. injection; for Fall in BP Relative Potency PGE1: potency ratio against PGE1; for Fall in BP Relative Potency PGI2: potency ratio against PGI2; for Duration t½: time from peak hypotensive response to recovery to half its peak, rat i.v.
Method: Anaesthesia was induced in male Wistar rats (250-300 g body weight) with sodium pentobarbitone (30 mg kg^-1, i.v.) and supplemented (3 mg kg^-1) when required. Arterial pressure was recorded from a cannulated femoral artery and heart rate derived from the arterial pulse. Rectal temperature was maintained at 37°C by thermistor-controlled radiant heat. Each compound was injected into a femoral vein in a volume of 0.25 ml and flushed in with 0.2 ml of saline (0.9% w/v). Dose-response relationships for the fall in mean systemic arterial blood pressure (BP) with the hydantoins were constructed and compared to those obtained with PGI2 and PGE, in the same animal, and a potency ratio calculated. […] Figures for Compound X and PGI2 are listed for comparison.

[4] = system: rabbit platelet aggregation; test: Ex vivo rabbit platelet aggregation after i.v. infusion of the hydantoin (ADP 20 µM); type: in vivo, rabbits; conditions: i.v. infusion for 15 min, blood sample 10 min after start of infusion
Method: Male rabbits (2-2.5 kg body weight) were anaesthetized with sodium pentobarbitone (30 mg/kg, i.v. followed by maintenance doses of 3mg/kg) and systemic arterial blood pressure (BP) was recorded from a cannula filled with
heparinized saline (5 units/ml) in a carotid artery; no heparin was administered to the animal. Hydantoins were administered via a cannula in a femoral vein. Blood samples (1.5 ml) were slowly collected into a plastic syringe containing tri-sodium citrate (3.18%, 0.15 ml) from a cannula inserted into a femoral artery, shaken gently and transferred to an Eppendorf plastic tube and spun in a modified Eppendorf centrifuge for 2 sec (Model 5412, maximum centrifugal force 10,000 x g). The PRP was collected and a 0.35 ml aliquot was transferred to the aggregometer and incubated at 37°C for 1 minute prior to addition of sufficient ADP (20 µM) to produce near-maximal aggregation. The time-interval between removal of blood samples and the transference of the PRP to the aggregometer was less than 1.5 min.
Blood samples were removed at 10 min. intervals once the BP of the rabbit had reached steady resting levels, 10-20 min. following the preparative surgical procedures. After three control blood samples had been prepared and the control aggregation of the platelets measured, the hydantoin was infused intravenously for 15 min from a Braun slow-infusion apparatus. Blood samples were collected 10 min after the start of the infusion. Two further 10 min. samples post-infusion were collected prior to commencing further infusions.
The following results list values of ED50 and change in blood pressure. For comparison, also given are the results obtained upon administration of PGIZ and Compound X.

[5] = system: acid-ethanol induced gastric lesions; test: Inhibition of acid-ethanol induced gastric lesions in rats (cytoprotection); type: in vivo; conditions: rat, oral
Method: The inhibition of acid-ethanol induced gastric lesions in rats (cytoprotection) was measured for various doses of orally administered hydantoin. Figures for compound X are given for comparison.

[6] = system: B.P.; test: Cardiovascular studies in the dog: vasodepressor potency and duration; type: in vivo, Dogs; conditions: i.v. bolus
Method: Dogs (10-15 kg body weight) were anaesthetized with chloralose (80 mg/kg i.v.) and maintained with subcutaneous injections of pentobarbitone (3 mg/kg). Drugs were administered via a femoral vein by bolus injection and B.P. was recorded from the right femoral artery. Results give vasodepressor potency and t1 2 duration. Figures for Compound X are provided for comparison.

[7] = Dose 1.25 ug kg^-1, duration of vasodepressor effect

SMILES	Δ BP [1]	blood pressure depressant activity [1]	IC50 [2]	Potency relative to PGI2 [2]	Increase on Incubation (min) 5 [2]	Increase on Incubation (min) 10 [2]	Fall in BP Relative Potency PGE1 [3]	Fall in BP Relative Potency PGI2 [3]	Duration t½ [3]	ED50 [4]	% inhibition ([5]; Dose 5 μg kg^-1)	% inhibition ([5]; Dose 10 μg kg^-1)	% inhibition ([5]; Dose 25 μg kg^-1)	Δ BP ([6]; Dose 1.25 ug kg^-1)	t1/2 [6, 7]	Δ BP ([6]; Dose 2.5 ug kg^-1)	t1/2 ([6]; Dose 2.5 ug kg^-1, duration of vasodepressor effect)	% inhibition ([5]; Dose 50 μg kg^-1)	Δ BP ([6]; Dose 0.625 ug kg^-1)	t1/2 ([6]; Dose 0.625 ug kg^-1, duration of vasodepressor effect)
O=C(O)CCCCCCC1C(=O)NC(=O)N1N=CC(O)C1CCCCC1 (stereo not shown) [Compound No. 3, 5-(6-carboxyhexyl)-1-(2-cyclohexyl-2-hydroxy-ethylideneamino)hydantoin]	0 mmHg	no significant blood pressure depressant activity	16 ng/mL (≈ 43.5 nM)	0.02	x7	x20	0.324	0.027	11.0 min	2.0 µg/kg/min	–	–	–	–	–	–	–	–	–	–
O=C(O)CCCCCCC1C(=O)NC(=O)N1CCC(O)C1CCCCC1 (stereo not shown) [Compound X, 5-(6-carboxyhexyl)-1-(3-cyclohexyl-3-hydroxypropyl)hydantoin, reference compound]	-5 mmHg	–	1.5 ng/mL (≈ 4.07 nM)	0.21	x2	x3	0.72	0.06	4.0 min	3.3 µg/kg/min	46 ± 26%	80 ± 9%	89 ± 6%	-45 mm Hg	2.8 min	-56 mm Hg	6.2 min	–	–	–
O=C(O)CCCCCCC1C(=O)NC(=O)N1N=CC(O)C1CCCCC1 (single isomer, unassigned) [Compound No. 6, 5-(6-carboxyhe-xyl)-1-(2-cyclohexyl-2-hydroxyethylideneamino)hydantoin]	0 mmHg	no significant blood pressure depressant activity	2 ng/mL (≈ 5.44 nM)	0.30	x5	x20	0.5	0.041	17.0 min	0.15 µg/kg/min	–	31 ± 20%	50 ± 21%	-65 mm Hg	>60 min	–	–	69 ± 8%	-54 mm Hg	60 min
